From patent US11427548B2 (Arvinas Operations, Inc., priority 2015, dated 2022) come the findings set out here.

SMILES strings stand for the structures. Where two headings read alike, the source gives them in different places.

The target in the test is T1, Androgen Receptor (Homo sapiens, UniProt P10275).
T1 construct: endogenous in cells; host or cells: VCaP cells
T1 sequence (P10275 1-920): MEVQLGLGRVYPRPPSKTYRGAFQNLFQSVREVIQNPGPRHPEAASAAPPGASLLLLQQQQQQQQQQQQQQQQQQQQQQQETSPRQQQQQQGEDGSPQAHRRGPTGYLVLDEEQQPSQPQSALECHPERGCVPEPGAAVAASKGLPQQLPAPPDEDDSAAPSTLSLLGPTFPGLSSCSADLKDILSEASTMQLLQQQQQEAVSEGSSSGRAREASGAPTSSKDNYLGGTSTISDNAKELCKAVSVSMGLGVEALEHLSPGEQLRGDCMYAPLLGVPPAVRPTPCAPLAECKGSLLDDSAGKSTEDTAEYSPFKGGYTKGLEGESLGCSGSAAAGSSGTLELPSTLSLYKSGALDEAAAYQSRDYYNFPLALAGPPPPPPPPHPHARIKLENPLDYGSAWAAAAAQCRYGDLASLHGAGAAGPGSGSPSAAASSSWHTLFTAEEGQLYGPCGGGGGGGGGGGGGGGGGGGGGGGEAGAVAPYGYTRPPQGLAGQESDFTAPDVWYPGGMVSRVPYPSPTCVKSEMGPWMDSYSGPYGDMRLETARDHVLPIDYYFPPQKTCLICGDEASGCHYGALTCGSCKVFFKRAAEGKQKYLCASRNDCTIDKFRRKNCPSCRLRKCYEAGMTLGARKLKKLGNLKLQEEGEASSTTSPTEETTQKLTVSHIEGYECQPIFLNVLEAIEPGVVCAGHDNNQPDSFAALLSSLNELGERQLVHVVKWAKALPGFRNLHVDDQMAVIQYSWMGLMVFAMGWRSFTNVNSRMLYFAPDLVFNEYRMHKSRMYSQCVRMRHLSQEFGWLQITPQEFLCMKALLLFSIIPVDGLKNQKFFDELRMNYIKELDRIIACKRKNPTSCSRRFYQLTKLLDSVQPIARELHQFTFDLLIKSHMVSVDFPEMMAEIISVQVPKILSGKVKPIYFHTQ
Kind of test: Androgen Receptor ELISA assay (PathScan AR ELISA) in VCaP cells: AR degradation, Dmax and DC50. The test is classed as cell-based. Particulars: for DC50: read-out: VCaP DC50; for Dmax: VCaP. In short, it runs like this: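 VCaP cells, 30,000/well, grown ≥3 days in phenol red-free RPMI with 5% charcoal-stripped FBS; compound added in 0.1% DMSO with 0.1 nM R1881, 7 half-log doses, 24 h. Lysate AR quantified by PathScan sandwich ELISA, HRP/TMB read at 450 nm, giving DC50 and Dmax.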

Where [1] appears, read: read-out: VCaP Dmax (%), VCaP cells, Table 36.
The mark [2] stands for this setting: VCaP cells, Table 36, read-out: VCaP Dmax (%).

On to `Cc1ncsc1-c1ccc([C@H](C)NC(=O)[C@@H]2C[C@@H](O)CN2C(=O)[C@@H](NC(=O)CN2CCN(CCCN3CCN(c4ccc(C(=O)N[C@H]5C(C)(C)[C@H](Oc6ccc(C#N)c(C#N)c6)C5(C)C)cn4)CC3)CC2)C(C)(C)C)cc1` [Example 715, N-((1r,3r)-3-(3,4-dicyanophenoxy)-2,2,4,4-tetramethylcyclobutyl)-6-(4-(3-(4-(2-(((S)-1-((2S,4R)-4-hydroxy-2-(((S)-1-(4-(4-methylthiazol-5-yl)phenyl)ethyl)carbam-oyl)pyrrolidin-1-yl)-3,3-dimethyl-1-oxobutan-2-yl)amino)-2-oxoethyl)piperazin-1-yl)propyl)piperazin-1-yl)nicotinamide], for which the DC50 (in general, the concentration at which degradation of the target reaches its halfway point) (VCaP cells, Table 36) was less than 50 nM. Also, the Dmax – broadly, the largest share of the target that was removed – under setting [1] lay within 51 to 70%.

For `Cc1nc(O[C@H]2C(C)(C)[C@H](NC(=O)c3ccc(N4CCN(CCCN5CCN(CC(=O)O[C@H](C(=O)N6C[C@H](O)C[C@H]6C(=O)N[C@@H](C)c6ccc(-c7scnc7C)cc6)C(C)(C)C)CC5)CC4)nc3)C2(C)C)ccc1C#N` [Example 716, N-((1r,3r)-3-((5-cyano-6-methylpyridin-2-yl)oxy)-2,2,4,4-tetramethylcyclobutyl)-6-(4-(3-(4-(2-(((S)-1-((2S,4R)-4-hydroxy-2-(((S)-1-(4-(4-methylthiazol-5-yl)phenyl)ethyl)carbam-oyl)pyrrolidin-1-yl)-3,3-dimethyl-1-oxobutan-2-yl)amino)-2-oxoethyl)piperazin-1-yl)propyl)piperazin-1-yl)nicotinamdie], the DC50 (VCaP cells, Table 36) is greater than 501 nM. Moreover, the Dmax under setting [2] fell in the range of 26 to 50%.

For the molecule `Cc1ncsc1-c1ccc([C@H](C)NC(=O)[C@@H]2C[C@@H](O)CN2C(=O)[C@@H](NC(=O)CN2CCN(CCCN3CCN(c4ccc(C(=O)N[C@H]5C(C)(C)[C@H](Oc6ccc(C#N)c(Cl)c6)C5(C)C)cn4)CC3)CC2)C(C)(C)C)cc1` [Example 717, N-((1r,3r)-3-(3-chloro-4-cyanophenoxy)-2,2,4,4-tetramethylcyclobutyl)-6-(4-(3-(4-(2-(((S)-1-((2S,4R)-4-hydroxy-2-(((S)-1-(4-(4-methylthiazol-5-yl)phenyl)ethyl)carbam-oyl)pyrrolidin-1-yl)-3,3-dimethyl-1-oxobutan-2-yl)amino)-2-oxoethyl)piperazin-1-yl)propyl)piperazin-1-yl)nicotinamide], where the note is “VCaP cells, Table 36”, the DC50 is less than 50 nM. For the setting “read-out: VCaP Dmax (%)”, the Dmax fell in the range of 51 to 70%.

Turning to `CO[C@@H]1C[C@@H](C(=O)N(C)Cc2ccc(-c3scnc3C)cc2)N(C(=O)[C@@H](N(C)C(=O)COCCCCCN(C)c2ccc(C(=O)N[C@H]3C(C)(C)[C@H](Oc4ccc(C#N)c(C(F)(F)F)c4)C3(C)C)nc2)C(C)(C)C)C1` [Example 718, N-((1r,3r)-3-(4-cyano-3-(trifluoromethyl)phenoxy)-2,2,4,4-tetramethylcyclobutyl)-5-((5-(2-(((S)-1-((2S,4R)-4-methoxy-2-(methyl(4-(4-methylthiazol-5-yl)benzyl)carbamoyl)pyrrolidin-1-yl)-3,3-dimethyl-1-oxobutan-2-yl)(methyl)amino)-2-oxoethoxy)pentyl)(meth-yl)amino)picolinamide], the 50% degradation concentration (DC50) (VCaP cells, Table 36) is greater than 501 nM. Further, the Dmax under setting [2] is less than 25%.

Regarding `Cc1ncsc1-c1ccc([C@H](C)NC(=O)[C@@H]2C[C@@H](O)CN2C(=O)[C@@H](NC(=O)COCCc2cn(-c3ccc(C(=O)N[C@H]4C(C)(C)[C@H](Oc5ccc(C#N)c(C(F)(F)F)c5)C4(C)C)cc3)nn2)C(C)(C)C)cc1` [Example 719, (2S,4R)-1-((S)-2-(2-(2-(1-(4-(((1r,3r)-3-(4-cyano-3-(trifluoromethyl)phenoxy)-2,2,4,4-tetramethylcyclobutyl)carbamoyl)phenyl)-1H-1,2,3-triazol-4-yl)ethoxy)acetamido)-3,3-dimethylbutanoyl)-4-hydroxy-N-((S)-1-(4-(4-methylthiazol-5-yl)phenyl)ethyl)pyrrolidine-2-carboxamide], under “VCaP cells, Table 36”, the DC50 is less than 50 nM. Further, the maximal degradation (Dmax) under setting [1] is greater than 71%.

With `Cc1ncsc1-c1ccc([C@H](C)NC(=O)[C@@H]2C[C@@H](F)CN2C(=O)[C@@H](NC(=O)COCCN2CCN(c3ccc(C(=O)N[C@H]4C(C)(C)[C@H](Oc5ccc(C#N)c(Cl)c5)C4(C)C)cn3)CC2)C(C)(C)C)cc1` [Example 720, N-((1r,3r)-3-(3-chloro-4-cyanophenoxy)-2,2,4,4-tetramethylcyclobutyl)-6-(4-(2-(2-(((S)-1-((2S,4R)-4-fluoro-2-(((S)-1-(4-(4-methylthiazol-5-yl)phenyl)ethyl)carbam-oyl)pyrrolidin-1-yl)-3,3-dimethyl-1-oxobutan-2-yl)amino)-2-oxoethoxy)ethyl)pipera-zin-1-yl)nicotinamide], the DC50 (VCaP cells, Table 36) was greater than 501 nM. Besides, the Dmax under setting [1] is less than 25%.

For `Cc1ncsc1-c1ccc([C@H](C)NC(=O)[C@@H]2C[C@H](F)CN2C(=O)[C@@H](NC(=O)COCCN2CCN(c3ccc(C(=O)N[C@H]4C(C)(C)[C@H](Oc5ccc(C#N)c(Cl)c5)C4(C)C)cn3)CC2)C(C)(C)C)cc1` [Example 721, N-((1r,3r)-3-(3-chloro-4-cyanophenoxy)-2,2,4,4-tetramethylcyclobutyl)-6-(4-(2-(2-(((S)-1-((2S,4S)-4-fluoro-2-(((S)-1-(4-(4-methylthiazol-5-yl)phenyl)ethyl)carbam-oyl)pyrrolidin-1-yl)-3,3-dimethyl-1-oxobutan-2-yl)amino)-2-oxoethoxy)ethyl)pipera-zin-1-yl)nicotinamide], the DC50 (VCaP cells, Table 36) was greater than 501 nM. In addition, the Dmax under setting [1] was less than 25%.

With `CC(C)C[C@H](OCCN1CCN(c2ccc(C(=O)N[C@H]3C(C)(C)[C@H](Oc4ccc(C#N)c(Cl)c4)C3(C)C)cn2)CC1)C(=O)N[C@@H](C)C(=O)N1C[C@H](O)C[C@H]1C(=O)NCc1ccc(Cl)cc1` [Example 722, N-((1r,3r)-3-(3-chloro-4-cyanophenoxy)-2,2,4,4-tetramethylcyclobutyl)-6-(4-(2-(((S)-1-(((S)-1-((2S,4R)-2-((4-chlorobenzyl)carbamoyl)-4-hydroxypyrrolidin-1-yl)-1-oxopropan-2-yl)amino)-4-methyl-1-oxopentan-2-yl)oxy)ethyl)piperazin-1-yl)nicotinamide], the DC50 (VCaP cells, Table 36) was greater than 501 nM. In addition, the Dmax under setting [1] was less than 25%.

As to `Cc1ncsc1-c1ccc([C@H](C)NC(=O)C2C[C@@H](O)CN2C(=O)C(NC(=O)CN2CCN(CCCCc3ccc(C(=O)N[C@H]4C(C)(C)[C@H](Oc5ccc(C#N)c(C(F)(F)F)c5)C4(C)C)cc3)CC2)C(C)(C)C)cc1` (stereo partly drawn) [Example 723, (2S,4R)-1-((S)-2-(2-(4-(4-(4-(((1r,3r)-3-(4-cyano-3-(trifluoromethyl)phenoxy)-2,2,4,4-tetramethylcyclobutyl)carbamoyl)phenyl)butyl)piperazin-1-yl)actamido)-3,3-dimethylbutanoyl)-4-hydroxy-N-((S)-1-(4-(4-methylthiazol-5-yl)phenyl)ethyl)pyrrolidine-2-carboxamide], the DC50 (VCaP cells, Table 36) is less than 50 nM. The greatest degradation seen (Dmax) under setting [2] is greater than 71%.

Take `Cc1ncsc1-c1ccc([C@H](C)NC(=O)[C@@H]2CCCN2C(=O)[C@@H](NC(=O)CN2CCN(CCCc3ccc(C(=O)N[C@H]4C(C)(C)[C@H](Oc5ccc(C#N)c(C(F)(F)F)c5)C4(C)C)cc3)CC2)C(C)(C)C)cc1` [Example 724, (S)-1-((S)-2-(2-(4-(3-(4-(((1r,3r)-3-(4-cyano-3-(trifluoromethyl)phenoxy)-2,2,4,4-tetramethylcyclobutyl)carbamoyl)phenyl)propyl)piperazin-1-yl)acetamido)-3,3-dimethylbutanoyl)-N-((S)-1-(4-(4-methylthiazol-5-yl)phenyl)ethyl)pyrrolidine-2-carboxamide]: the DC50 (VCaP cells, Table 36) is greater than 501 nM. Also, the Dmax under setting [2] was less than 25%.

For `Cc1ncsc1-c1ccc([C@H](C)NC(=O)[C@@H]2CC(F)(F)CN2C(=O)[C@@H](NC(=O)COCCN2CCN(c3ccc(C(=O)N[C@H]4C(C)(C)[C@H](Oc5ccc(C#N)c(Cl)c5)C4(C)C)cn3)CC2)C(C)(C)C)cc1` [Example 725, N-((1r,3r)-3-(3-chloro-4-cyanophenoxy)-2,2,4,4-tetramethylcyclobutyl)-6-(4-(2-(2-(((S)-1-((S)-4,4-difluoro-2-(((S)-1-(4-(4-methylthiazol-5-yl)phenyl)ethyl)carbam-oyl)pyrrolidin-1-yl)-3,3-dimethyl-1-oxobutan-2-yl)amino)-2-oxoethoxy)ethyl)pipera-zin-1-yl)nicotinamide], the DC50 (VCaP cells, Table 36) was greater than 501 nM. For the same molecule, the Dmax under setting [2] is less than 25%.
